Test results: ChEMBL document CHEMBL5050861 (2021); call rule not given here
In brackets after ≈: the same amount, converted by molar mass.

What was measured:
[1] = Kinetic aqueous solubility of the compound; type: physicochemical; details: buffer; read-out: Kinetic_solubility
[2] = Stability of compound in rat microsomes assessed as half-life; type: ADME, Microsome
[3] = Inhibition of recombinant mouse GALK1 using ATP as substrate incubated for 1 hr and measured by Kinase-Glo assay

With `CC1=C(C(=O)Nc2cncc(C(=O)O)c2)C(c2ccccc2Cl)N=C(Nc2nc3ccccc3o2)N1` (configuration not stated) the solubility kinetic [1] was 60.3 µg/mL (≈ 120 µM) and the half-life [2] was over 30 min.
With `CC1=C(C(=O)Nc2nncs2)C(c2ccccc2Br)N=C(Nc2nc3ccccc3o2)N1` (configuration not stated) the solubility kinetic [1] was under 1 µg/mL, the half-life [2] was over 30 min and the IC50 ([3]; read-out: IC50) was 9.68 µM.
Molecule `CC1=C(C(=O)NCc2c(C)nn(C)c2C)C(c2ccc(C)cc2Cl)N=C(Nc2nc3cccc(N)c3o2)N1` (configuration not stated) has a solubility kinetic [1] of 12 µg/mL (≈ 22.5 µM), a half-life [2] of 2.37 min and an IC50 ([3]; read-out: IC50) of 6.85 µM.
Molecule `CC1=C(C(=O)Nc2ccc(CO)cn2)C(c2ccccc2Cl)N=C(Nc2nc3ccc(F)cc3o2)N1` (configuration not stated) has a solubility kinetic [1] of under 1 µg/mL, a half-life [2] of over 30 min and an IC50 ([3]; read-out: IC50) of 19.3 µM.
With `COc1ccc(C2N=C(Nc3nc4ccccc4o3)NC(C)=C2C(=O)Nc2nncs2)c(Cl)c1` (configuration not stated) the solubility kinetic [1] was under 1 µg/mL, the half-life [2] was over 30 min and the IC50 ([3]; read-out: IC50) was 5.44 µM.
Molecule `CCn1cc(CNC(=O)C2=C(C)NC(Nc3nc4cccc(N)c4o3)=NC2c2ccc(Cl)cc2Cl)cn1` (configuration not stated) has a solubility kinetic [1] of 4.6 µg/mL (≈ 8.53 µM), a half-life [2] of 14.1 min and an IC50 ([3]; read-out: IC50) of 8.63 µM.
Work on `CC1=C(C(=O)Nc2cc(C(=O)O)ccc2F)C(c2ccccc2Cl)N=C(Nc2nc3ccccc3o2)N1` (configuration not stated) yielded a solubility kinetic [1] of 25.4 µg/mL (≈ 48.9 µM), a half-life [2] of over 30 min and an IC50 ([3]; read-out: IC50) of 10.9 µM.
In the case of `CC1=C(C(=O)Nc2ccc(Cl)cn2)C(c2ccccc2Cl)N=C(Nc2nc3ccccc3o2)N1` (configuration not stated), the solubility kinetic [1] is reported as under 1 µg/mL, the half-life [2] is reported as 30.8 min and the IC50 [3] is reported as “Not Active”.
`CC1=C(C(=O)Nc2nnc(C(F)(F)F)s2)C(c2ccccc2Cl)N=C(Nc2nc3ccccc3o2)N1` (configuration not stated) gave a solubility kinetic [1] of under 1 µg/mL, a half-life [2] of over 30 min and an IC50 ([3]; read-out: IC50) of 21.7 µM.
In the case of `COC(=O)c1cccc(NC(=O)C2=C(C)NC(Nc3nc4ccccc4o3)=NC2c2ccccc2Cl)n1` (configuration not stated), the solubility kinetic [1] is reported as under 1 µg/mL, the half-life [2] is reported as over 30 min and the IC50 ([3]; read-out: IC50) is reported as 12.2 µM.
Work on `CC1=C(C(=O)Nc2ccccn2)C(c2ccccc2Cl)N=C(Nc2nc3cccc(N)c3o2)N1` (configuration not stated) yielded a solubility kinetic [1] of under 1 µg/mL, a half-life [2] of over 30 min and an IC50 ([3]; read-out: IC50) of 19.3 µM.
In the case of `CC1=C(C(=O)NCc2cnn(C)c2)C(c2ccc(C)cc2Cl)N=C(Nc2nc3ncccc3o2)N1` (configuration not stated), the solubility kinetic [1] is reported as over 49 µg/mL, the half-life [2] is reported as 6.15 min and the IC50 [3] is reported as “Not Active”.
Work on `COC(=O)c1ccc(NC(=O)C2=C(C)NC(Nc3nc4ccccc4o3)=NC2c2ccccc2Cl)cn1` (configuration not stated) yielded a solubility kinetic [1] of under 1 µg/mL, a half-life [2] of 4.68 min and an IC50 ([3]; read-out: IC50) of 6.85 µM.
Molecule `CCn1nc(C)c(CNC(=O)C2=C(C)NC(Nc3nc4ccc(F)c(N)c4o3)=NC2c2ccc(C)cc2Cl)c1F` (configuration not stated) has a solubility kinetic [1] of 1.53 µg/mL (≈ 2.69 µM), a half-life [2] of 3.55 min and an IC50 ([3]; read-out: IC50) of 2.17 µM.
For `CC1=C(C(=O)NCc2cnn(C)c2)C(c2ccc(F)cc2Cl)N=C(Nc2nc3cccc(N)c3o2)N1` (configuration not stated), the solubility kinetic [1] was 49.6 µg/mL (≈ 97.5 µM), the half-life [2] was 29.6 min and the IC50 ([3]; read-out: IC50) was 6.85 µM.
In the case of `CC1=C(C(=O)Nc2cc(N(C)C)ccn2)C(c2ccc(C)cc2Cl)N=C(Nc2nc3cccc(N)c3o2)N1` (configuration not stated), the solubility kinetic [1] is reported as 4.6 µg/mL (≈ 8.66 µM), the half-life [2] is reported as 11.7 min and the IC50 ([3]; read-out: IC50) is reported as 15.3 µM.
Molecule `CCn1cc(CNC(=O)C2=C(C)NC(Nc3nc4ccc(F)c(N)c4o3)=N[C@H]2c2ccc(C)cc2Cl)cn1` has a solubility kinetic [1] of 22.1 µg/mL (≈ 41.1 µM) and an IC50 ([3]; read-out: IC50) of 0.97 µM.
`CC1=C(C(=O)Nc2ccc(F)cc2)C(c2ccccc2Cl)N=C(Nc2nc3ccccc3o2)N1` (configuration not stated) showed a solubility kinetic [1] of under 1 µg/mL, a half-life [2] of over 30 min and an IC50 ([3]; read-out: IC50) of 12.2 µM.
In the case of `CC1=C(C(=O)Nc2ccc(CO)cc2)C(c2ccccc2Cl)N=C(Nc2nc3ccccc3o2)N1` (configuration not stated), the solubility kinetic [1] is reported as under 1 µg/mL and the half-life [2] is reported as over 30 min.
In the case of `CC1=C(C(=O)Nc2cccc(F)c2)C(c2ccccc2Cl)N=C(Nc2nc3ccccc3o2)N1` (configuration not stated), the solubility kinetic [1] is reported as under 1 µg/mL, the half-life [2] is reported as over 30 min and the IC50 ([3]; read-out: IC50) is reported as 12.2 µM.
`CC1=C(C(=O)Nc2ccc(CN3CCOCC3)cc2)C(c2ccccc2Cl)N=C(Nc2nc3ccccc3o2)N1` (configuration not stated) showed a solubility kinetic [1] of under 1 µg/mL, a half-life [2] of 22.3 min and an IC50 ([3]; read-out: IC50) of 9.68 µM.
`CC1=C(C(=O)Nc2cc(C(=O)O)ccn2)C(c2cc(C(=O)O)ccc2Cl)N=C(Nc2nc3ccc(F)cc3o2)N1` (configuration not stated) gave a solubility kinetic [1] of over 83 µg/mL, a half-life [2] of over 30 min and an IC50 ([3]; read-out: IC50) of 12.2 µM.
`CC1=C(C(=O)Nc2nncs2)C(c2n[nH]cc2Cl)N=C(Nc2nc3ccccc3o2)N1` (configuration not stated) showed a solubility kinetic [1] of 34.6 µg/mL (≈ 75.9 µM), a half-life [2] of over 30 min and an IC50 ([3]; read-out: IC50) of 54.4 µM.
Molecule `CC1=C(C(=O)NCc2cnn(C)c2)C(c2ccccc2Cl)N=C(Nc2nc3ccccc3o2)N1` (configuration not stated) has a solubility kinetic [1] of 24.2 µg/mL (≈ 50.8 µM), a half-life [2] of 15.7 min and an IC50 ([3]; read-out: IC50) of 12.2 µM.
`CC1=C(C(=O)Nc2cc(C(=O)O)ccn2)C(c2ccc(N3CCCCC3)cc2Cl)N=C(Nc2nc3ccc(F)cc3o2)N1` (configuration not stated) showed a solubility kinetic [1] of 1.92 µg/mL (≈ 3.18 µM), a half-life [2] of over 30 min and an IC50 ([3]; read-out: IC50) of 12.2 µM.
Work on `COC(=O)c1ccc(NC(=O)C2=C(C)NC(Nc3nc4ccccc4o3)=NC2c2ccccc2Cl)cc1` (configuration not stated) yielded a solubility kinetic [1] of under 1 µg/mL, a half-life [2] of 17.7 min and an IC50 ([3]; read-out: IC50) of 9.68 µM.
Molecule `CC1=C(C(=O)NCc2cnn(C)c2)C(c2ccc(Cl)cc2Cl)N=C(Nc2nc3ccc(F)c(N)c3o2)N1` (configuration not stated) has a solubility kinetic [1] of 5.9 µg/mL (≈ 10.9 µM), a half-life [2] of over 30 min and an IC50 ([3]; read-out: IC50) of 1.93 µM.
`CC1=C(C(=O)Nc2ccc(N(C)C)cc2)C(c2ccccc2Cl)N=C(Nc2nc3ccccc3o2)N1` (configuration not stated) gave a solubility kinetic [1] of under 1 µg/mL, a half-life [2] of 11.5 min and an IC50 ([3]; read-out: IC50) of 13.7 µM.
Molecule `CC1=C(C(=O)Nc2cccnc2)C(c2ccccc2Cl)N=C(Nc2nc3ccccc3o2)N1` (configuration not stated) has a solubility kinetic [1] of under 1 µg/mL, a half-life [2] of 20 min and an IC50 ([3]; read-out: IC50) of 12.2 µM.
In the case of `CC1=C(C(=O)Nc2cc(N(C)C)ccn2)C(c2ccc(C)cc2Cl)N=C(Nc2nc3ccc(F)cc3o2)N1` (configuration not stated), the solubility kinetic [1] is reported as 6.2 µg/mL (≈ 11.6 µM), the half-life [2] is reported as 17.6 min and the IC50 ([3]; read-out: IC50) is reported as 6.85 µM.
